Molecules are shown by their SMILES.

One experiment deals with Respiratory Syncytial Virus. Briefly: microbe, parasite or virus in culture. The format is cell-based. As to conditions: RSV-infected HeLa cells, MTT readout seven days after infection; −log of EC50 in molar units. The text has this:
In vitro Screening for Activity against Respiratory Syncytial Virus.
The percent protection against cytopathology caused by viruses (antiviral activity or EC50) achieved by tested compounds and their cytotoxicity (CC50) are both calculated from dose-response curves. The selectivity of the antiviral effect is represented by the selectivity index (SI), calculated by dividing the CC50 (cytotoxic dose for 50% of the cells) by the EC50 (antiviral activity for 50% of the cells).
Automated tetrazolium-based colorimetric assays were used for determination of EC50 and CC50 of test compounds. Flat-bottom, 96-well plastic microtiter trays were filled with 180 μl of Eagle's Basal Medium, supplemented with 5% FCS (0% for FLU) and 20 mM Hepes buffer. Subsequently, stock solutions (7.8× final test concentration) of compounds were added in 45 μl volumes to a series of triplicate wells so as to allow simultaneous evaluation of their effects on virus- and mock-infected cells. Five five-fold dilutions were made directly in the microtiter trays using a robot system. Untreated virus controls, and HeLa cell controls were included in each test. Approximately 100 TCID50 of Respiratory Syncytial Virus was added to two of the three rows in a volume of 50 μl. The same volume of medium was added to the third row to measure the cytotoxicity of the compounds at the same concentrations as those used to measure the antiviral activity. After two hours of incubation, a suspension (4×10^5 cells/ml) of HeLa cells was added to all wells in a volume of 50 μl. The cultures were incubated at 37° C. in a 5% CO2 atmosphere. Seven days after infection the cytotoxicity and the antiviral activity was examined spectrophotometrically. To each well of the microtiter tray, 25 μl of a solution of MTT (3-(4,5-dimethylthiazol-2-yl)-2,5-diphenyltetrazolium bromide) was added. The trays were further incubated at 37° C. for 2 hours, after which the medium was removed from each cup. Solubilization of the formazan crystals was achieved by adding 100 μl 2-propanol. Complete dissolution of the formazan crystals were obtained after the trays have been placed on a plate shaker for 10 min. Finally, the absorbances were read in an eight-channel computer-controlled photometer (Multiskan MCC, Flow Laboratories) at two wavelengths (540 and 690 nm). The absorbance measured at 690 nm was automatically subtracted from the absorbance at 540 nm, so as to eliminate the effects of non-specific absorption.
Molecule `Cc1ccc(O)c(Cn2c(NCCCN3CCOCC3)nc3ccc(CN(CCO)c4ccc(C#N)cc4)cc32)n1` [Compound 88] registered an Activity of 9.1. `Cc1cccc(N(CCCCO)Cc2ccc3nc(NCCCN4CCOCC4)n(Cc4nc(C)ccc4O)c3c2)c1` [Compound 92] had an Activity of 8.8. Consider `Cc1cccc(N(CCCO)Cc2ccc3nc(NCCCN4CCOCC4)n(Cc4nc(C)ccc4O)c3c2)c1` [Compound 93], for which the Activity is 8.7.

In the case of `Cc1ccc(O)c(Cn2c(NCCCN3CCOCC3)nc3ccc(CN(CCCO)c4cccc(Br)c4)cc32)n1` [Compound 95], the Activity is recorded as 8.6. `Cc1ccc(O)c(Cn2c(NCCCN3CCOCC3)nc3ccc(CN(CCO)c4ccccc4)cc32)n1` [Compound 97] gave an Activity of 8.5. `C#Cc1cccc(N(CCO)Cc2ccc3nc(NCCCN4CCOCC4)n(Cc4nc(C)ccc4O)c3c2)c1` [Compound 99] showed an Activity of 8.5. Same read-out and setting: to `Cc1cccc(N(CCN(C)C)Cc2ccc3nc(NCCCN4CCOCC4)n(Cc4nc(C)ccc4O)c3c2)c1` [Compound 100] belongs 8.4; to `Cc1ccc(O)c(Cn2c(NCCCN3CCOCC3)nc3ccc(CN(CC(N)=O)c4ccccc4CCO)cc32)n1` [Compound 101], 8.3; to `Cc1ccc(O)c(Cn2c(NCCCN3CCOCC3)nc3ccc(CN(CCN4CCOCC4)c4ccccc4CCO)cc32)n1` [Compound 103], 8.2. Same read-out and setting: to `Cc1ccc(O)c(Cn2c(NCCCN3CCOCC3)nc3ccc(CN(c4ccccc4)c4ccc(O)cc4)cc32)n1` [Compound 106] belongs 8.1.

Regarding `Cc1ccc(O)c(Cn2c(NCCCN3CCOCC3)nc3ccc(CN(CCO)c4ccccc4CCO)cc32)n1` [Compound 107], the Activity is 8.1.

`Cc1ccc(O)c(Cn2c(NCCCN3CCOCC3)nc3ccc(CNc4ccccc4CN)cc32)n1` [Compound 108] showed an Activity of 8. As to `Cc1ccc(O)c(Cn2c(NCCCN3CCOCC3)nc3ccc(CN(c4ccccc4)c4cccc(O)c4)cc32)n1` [Compound 109], the Activity is recorded as 7.9. Molecule `Cc1ccc(O)c(Cn2c(NCCCN3CCOCC3)nc3ccc(CN(CCO)c4ccccc4C)cc32)n1` [Compound 110] registered an Activity of 7.8. In the case of `Cc1cccc(NCc2ccc3nc(NC4CCN(CCN5CCOCC5)CC4)n(Cc4nc(C)ccc4O)c3c2)c1` [Compound 164], the Activity is 7.5.

As to `Cc1ccc(O)c(Cn2c(NC3CCN(CCN4CCOCC4)CC3)nc3c(C)cccc32)n1` [Compound 166], the Activity amounted to 6.8. `Cc1ccc(O)c(Cn2c(NC3CCN(CCN4CCOCC4)CC3)nc3cc(/C=C/c4ccccc4)ccc32)n1` [Compound 167] returned an Activity of 6.7. Same read-out and setting: to `Cc1ccc(O)c(Cn2c(NC3CCN(CCN4CCOCC4)CC3)nc3ccc(CO)cc32)n1` [Compound 168] belongs 6.5.

Take `Cc1ccc(O)c(Cn2c(NCCCN3C[C@@H](C)O[C@@H](C)C3)nc3ccc(CO)cc32)n1` [Compound 175]: the Activity stood at 6.2. In the case of `Cc1ccc(O)c(Cn2c(NCCCN3CC(C)OC(C)C3)nc3ccc(CO)cc32)n1` (stereo not shown) [Compound 177], the Activity is reported as 5.7. The molecule `Cc1cc(C)cc(N(CCCC(N)=O)Cc2ccc3nc(NCC(O)CN4CCOCC4)n(Cc4nc(C)ccc4O)c3c2)c1.Cl` (stereo not shown) [Compound 178, 4-{(3,5-Dimethyl-phenyl)-[3-(3-hydroxy-6-methyl-pyridin-2-ylmethyl)-2-(2-hydroxy-3-morpholin-4-yl-propylamino)-3H-benzoimidazol-5-ylmethyl]-amino}-butyramide, HCl salt] gave an Activity of 9.6. `Cc1ccc(O)c(Cn2c(NCCCN3CCSCC3)nc3ccc(CO)cc32)n1` [Compound 182] showed an Activity of 7.1.

Staying with this experiment, now noted: human respiratory syncytial virus, 168 h; RSV-infected HeLa cells, MTT readout seven days after infection; −log of EC50 in molar units.
The EC50 is the concentration at which the effect is half-maximal. A higher EC50 goes with lower potency in that assay. In turn, `Cc1cc(C)cc(NCc2ccc3c(c2)nc(NCCCN2CCCOCC2)n3Cc2nc(C)ccc2O)c1` [Compound 174, 2-[5-[(3,5-Dimethyl-phenylamino)-methyl]-2-(3-[1,4]oxazepan-4-yl-propylamino)-benzoimidazol-1-ylmethyl]-6-methyl-pyridin-3-ol] had an EC50 of 2.51 nM. For `Cc1cc(C)cc(NCc2ccc3nc(NCCCN4CCOC(CCO)C4)n(Cc4nc(C)ccc4O)c3c2)c1` (stereo not shown) [Compound 181, 2-(6-[(3,5-Dimethyl-phenylamino)-methyl]-2-{3-[2-(2-hydroxy-ethyl)-morpholin-4-yl]-propylamino}-benzoimidazol-1-ylmethyl)-6-methyl-pyridin-3-ol], the EC50 was 6.31 nM.

Still in this experiment, the particulars now being: pEC50 (−log of EC50 when expressed in molar units), protection against RSV cytopathology.
With `COc1ccc(C)nc1Cn1c(NCCCN2CCOCC2)nc2ccc(CN(CCCC(N)=O)c3cc(C)cc(C)c3)cc21` [Compound 210, -{(3,5-Dimethyl-phenyl)-[3-(3-methoxy-6-methyl-pyridin-2-ylmethyl)-2-(3-morpholin-4-yl-propylamino)-3H-benzoimidazol-5-ylmethyl]-amino}-butyramide], the Activity is 9. In turn, `OCCCc1ccc(C(F)(F)F)cc1NCc1ccc2nc(NCCCN3CCOCC3)n(Cc3ncccc3O)c2c1` [Compound 216] came in with an Activity of 8.7. `OCCCc1ccc(C(F)(F)F)cc1NCc1ccc2nc(NCCCN3CCOCC3)n(Cc3cc(Br)ccc3O)c2c1` [Compound 217]: the Activity came out at 8.7. As to `COc1ccc(C)nc1Cn1c(NCCCN2CCOCC2)nc2ccc(CNc3cc(C)ccc3CCO)cc21` [Compound 220], the Activity came out at 8.6. On the same count and under the same terms, to `Cn1cnc2c(Cn3c(NCCCN4CCOCC4)nc4ccc(CNc5ccccc5CCCO)cc43)cccc21` [Compound 224] belongs 8.5; to `Cc1ccc(CCCO)c(NCc2ccc3nc(NCCCN4CCOCC4)n(Cc4ccccc4O)c3c2)c1` [Compound 227], 8.5; to `Cc1ccc(CCO)c(NCc2ccc3nc(NCCCN4CCOCC4)n(Cc4cccc5c4ncn5C)c3c2)c1` [Compound 229], 8.4. The molecule `Cn1cnc2c(Cn3c(NCCCN4CCOCC4)nc4ccc(CNc5cc(Br)ccc5CCCO)cc43)cccc21` [Compound 232] registered an Activity of 8.4. `C#Cc1ccc(CCO)c(NCc2ccc3nc(NCCCN4CCOCC4)n(Cc4cccc5cccnc45)c3c2)c1` [Compound 235]: the Activity is 8.3. The same measure, in the same setting: to `C#Cc1ccc(CCO)c(NCc2ccc3nc(NCCCN4CCOCC4)n(Cc4cccc5c4ncn5C)c3c2)c1` [Compound 236] belongs 8.1; to `Cn1cnc2c(Cn3c(NCCCN4CCOCC4)nc4ccc(CNc5ccccc5CCO)cc43)cccc21` [Compound 237], 7.9.

The molecule `Cn1cnc2c(Cn3c(NCCCN4CCOCC4)nc4ccc(CNc5ccccc5CCC(N)=O)cc43)cccc21` [Compound 238] displayed an Activity of 7.9. The same measure, in the same setting: to `COc1ccc(C)nc1Cn1c(NCCCN2CCOCC2)nc2ccc(CNc3ccccc3CCCO)cc21` [Compound 239] belongs 7.9; to `COc1ccc(C)nc1Cn1c(NCCCN2CCOCC2)nc2ccc(CN(CCO)c3cc(C)cc(C)c3)cc21` [Compound 240], 7.9. Still for that read-out and setting: to `Cn1cnc2c(Cn3c(NCCCN4CCOCC4)nc4ccc(CNc5cc(C(F)(F)F)ccc5CCCO)cc43)cccc21` [Compound 241] belongs 7.9; to `Cn1cnc2c(Cn3c(NCCCN4CCOCC4)nc4ccc(CNc5ccccc5CCN5CCOCC5)cc43)cccc21` [Compound 242], 7.8; to `Cc1nc(C)c(Cn2c(NCCCN3CCOCC3)nc3ccc(CNc4ccccc4CCCO)cc32)nc1C` [Compound 243], 7.8. Turning to `Cc1ccc(CCCO)c(NCc2ccc3nc(NCCCN4CCOCC4)n(Cc4cccc(C)n4)c3c2)c1` [Compound 274], the Activity is 7.2.

In turn, `Cc1ccc(CCO)c(NCc2ccc3nc(NCCCN4CCOCC4)n(Cc4cccc(C)n4)c3c2)c1` [Compound 275] registered an Activity of 7.2.

Molecule `Cc1ccc(C)c(NCc2ccc3c(c2)nc(NCCCN2CCOCC2)n3C2CCCc3nc(C)c(C)nc32)c1` (stereo not shown) [Compound 276] displayed an Activity of 7.2. Consider `Cc1cccc(NCc2ccc3nc(NCCCN4CCOCC4)n(Cc4cccc5c4ncn5C)c3c2)c1CCO` [Compound 277], for which the Activity is 7.1. The molecule `Cc1cc(C)cc(N(CCO)Cc2ccc3nc(NCCCN4CCOCC4)n(Cc4cccc(Br)n4)c3c2)c1.Cl` [Compound 278] showed an Activity of 7.1.

In turn, `COc1ccc(C)nc1Cn1c(NCCCN2CCOCC2)nc2ccc(CNc3ccccc3CO)cc21` [Compound 279] returned an Activity of 7.1. On to `COc1ccc(C)nc1Cn1c(NCCCN2CCOCC2)nc2ccc(CNc3ccc(C)cc3CO)cc21` [Compound 280], for which the Activity was 7.1. Still for that read-out and setting: to `Cc1cc(C)cc(N(CCO)Cc2ccc3nc(NCCCN4CCOCC4)n(Cc4cccc(C)n4)c3c2)c1` [Compound 281] belongs 7.1.

The values are drawn from US7449463B2, “Morpholinyl containing benzimidazoles as inhibitors of respiratory syncytial virus replication” (Tibotec Pharmaceuticals Ltd., priority 2003, dated 2008).
